Structures can show the parent of a compound that is named as a salt.
Legend:
NaV1.5 [1] = biological target: T1, NaV1.5 (Homo sapiens (Human), UniProt Q14524); experiment: in vitro; details: pH 7.4
NaV1.6 [2] = biological target: T2, NaV1.6 (Homo sapiens (Human), UniProt Q9UQD0); experiment: Sodium Influx Assay (Flux), NaV1.6; details: read-out: Flux NaV1.6 IC50; Trex HEK293 cells, ANG2 dye; arithmetic mean
NaV1.5 [3] = biological target: T1, NaV1.5; experiment: Electrophysiological Assay (EP), patch voltage clamp, NaV1.5; format: cell-based; details: HEK-293 cells, whole-cell patch clamp, inactivated state; arithmetic mean
Description: Sodium currents were measured using the patch clamp technique in the whole-cell configuration using either a PatchXpress automated voltage clamp or manually using an Axopatch 200B (Axon Instruments) or Model 2400 (A-M systems) amplifier.
In some studies, the external sodium was reduced by equimolar replacement with choline. […] All recordings were performed at ambient temperature in a bath chamber with a volume of 150 μL. Control sodium currents were measured in 0.5% DMSO. Controls and representative compounds of the invention were applied to the recording chamber through a 4-pinch or 8-pinch valve bath perfusion system manufactured by ALA Scientific Instruments.
Series resistance compensation was applied (60-80%). […] All statistics in this study are given as mean±SD.
The membrane potential was maintained at a voltage where inactivation of the channel is complete. The voltage is then stepped back to a very negative (Vhold=−150 mV) voltage for 20 ms and then a test pulse is applied to quantify the compound block. […] The percent decrease in sodium current following wash-on of compound was taken as the percent block of sodium channels.

NaV1.1 [4] = biological target: T3, NaV1.1 (Homo sapiens (Human), UniProt P35498); experiment: Sodium Influx Assay (Flux), NaV1.1; format: cell-based; details: Trex HEK293 cells, ANG2 dye; arithmetic mean
NaV1.5 [5] = biological target: T1, NaV1.5; experiment: Sodium Influx Assay (Flux), NaV1.5; details: read-out: Flux NaV1.5 IC50; Trex HEK293 cells, ANG2 dye; arithmetic mean
NaV1.1 [6] = biological target: T3, NaV1.1; experiment: Electrophysiological Assay (EP), patch voltage clamp, NaV1.1; format: cell-based; details: HEK-293 cells, whole-cell patch clamp, inactivated state; arithmetic mean
NaV1.6 [7] = biological target: T2, NaV1.6; experiment: Electrophysiological Assay (EP), patch voltage clamp, NaV1.6; format: cell-based; details: HEK-293 cells, whole-cell patch clamp, inactivated state; arithmetic mean

T1 sequence (Q14524 other isoform, or with tags, fused parts or gaps): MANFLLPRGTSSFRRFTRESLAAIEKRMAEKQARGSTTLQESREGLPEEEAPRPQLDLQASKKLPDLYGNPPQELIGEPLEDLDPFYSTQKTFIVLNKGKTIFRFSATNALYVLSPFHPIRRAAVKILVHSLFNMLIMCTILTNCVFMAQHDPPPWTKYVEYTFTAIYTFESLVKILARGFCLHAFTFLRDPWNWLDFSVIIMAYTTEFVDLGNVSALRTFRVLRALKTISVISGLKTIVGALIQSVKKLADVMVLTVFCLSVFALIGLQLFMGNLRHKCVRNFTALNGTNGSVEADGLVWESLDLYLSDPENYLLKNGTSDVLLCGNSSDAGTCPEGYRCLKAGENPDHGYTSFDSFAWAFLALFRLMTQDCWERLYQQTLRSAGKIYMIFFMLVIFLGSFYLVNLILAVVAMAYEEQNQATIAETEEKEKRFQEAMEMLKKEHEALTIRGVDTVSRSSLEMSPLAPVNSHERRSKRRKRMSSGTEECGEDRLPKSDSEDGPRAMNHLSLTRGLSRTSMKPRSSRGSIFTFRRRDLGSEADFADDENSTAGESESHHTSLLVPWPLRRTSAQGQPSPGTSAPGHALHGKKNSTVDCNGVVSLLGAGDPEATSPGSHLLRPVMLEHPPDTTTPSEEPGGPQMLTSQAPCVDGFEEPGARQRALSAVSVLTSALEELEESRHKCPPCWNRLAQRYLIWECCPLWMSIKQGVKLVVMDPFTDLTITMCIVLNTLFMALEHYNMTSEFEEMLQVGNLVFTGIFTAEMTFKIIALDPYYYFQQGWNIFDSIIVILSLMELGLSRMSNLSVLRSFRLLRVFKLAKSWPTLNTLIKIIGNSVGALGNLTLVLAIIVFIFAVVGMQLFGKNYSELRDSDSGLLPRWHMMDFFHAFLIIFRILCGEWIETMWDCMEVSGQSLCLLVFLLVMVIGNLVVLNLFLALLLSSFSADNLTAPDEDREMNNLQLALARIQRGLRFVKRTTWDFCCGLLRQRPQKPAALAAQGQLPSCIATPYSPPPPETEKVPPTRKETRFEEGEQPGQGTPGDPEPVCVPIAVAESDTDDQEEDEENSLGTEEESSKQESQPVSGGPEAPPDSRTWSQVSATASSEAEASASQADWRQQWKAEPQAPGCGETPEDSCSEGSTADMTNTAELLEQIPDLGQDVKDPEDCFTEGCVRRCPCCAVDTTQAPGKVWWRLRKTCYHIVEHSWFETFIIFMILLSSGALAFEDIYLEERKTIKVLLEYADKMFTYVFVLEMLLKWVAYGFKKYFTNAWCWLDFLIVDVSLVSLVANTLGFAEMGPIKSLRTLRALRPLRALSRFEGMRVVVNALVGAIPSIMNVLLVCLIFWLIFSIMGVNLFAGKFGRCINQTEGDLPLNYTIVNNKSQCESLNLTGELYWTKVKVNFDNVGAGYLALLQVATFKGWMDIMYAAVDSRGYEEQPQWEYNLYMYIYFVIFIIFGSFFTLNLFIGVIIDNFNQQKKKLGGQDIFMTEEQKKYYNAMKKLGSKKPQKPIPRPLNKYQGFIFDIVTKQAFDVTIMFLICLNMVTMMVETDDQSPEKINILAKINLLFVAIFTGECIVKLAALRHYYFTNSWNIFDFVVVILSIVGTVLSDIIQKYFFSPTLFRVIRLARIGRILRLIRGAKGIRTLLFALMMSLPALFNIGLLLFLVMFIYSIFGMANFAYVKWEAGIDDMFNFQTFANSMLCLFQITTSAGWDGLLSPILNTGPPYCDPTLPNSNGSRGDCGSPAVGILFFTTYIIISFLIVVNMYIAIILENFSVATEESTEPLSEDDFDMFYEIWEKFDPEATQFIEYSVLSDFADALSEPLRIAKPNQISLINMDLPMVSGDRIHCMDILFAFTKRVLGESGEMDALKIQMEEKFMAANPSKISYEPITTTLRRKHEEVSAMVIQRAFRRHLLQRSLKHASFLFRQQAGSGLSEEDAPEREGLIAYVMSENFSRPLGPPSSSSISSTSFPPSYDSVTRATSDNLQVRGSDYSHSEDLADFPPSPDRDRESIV
T2 sequence (Q9UQD0 whole entry): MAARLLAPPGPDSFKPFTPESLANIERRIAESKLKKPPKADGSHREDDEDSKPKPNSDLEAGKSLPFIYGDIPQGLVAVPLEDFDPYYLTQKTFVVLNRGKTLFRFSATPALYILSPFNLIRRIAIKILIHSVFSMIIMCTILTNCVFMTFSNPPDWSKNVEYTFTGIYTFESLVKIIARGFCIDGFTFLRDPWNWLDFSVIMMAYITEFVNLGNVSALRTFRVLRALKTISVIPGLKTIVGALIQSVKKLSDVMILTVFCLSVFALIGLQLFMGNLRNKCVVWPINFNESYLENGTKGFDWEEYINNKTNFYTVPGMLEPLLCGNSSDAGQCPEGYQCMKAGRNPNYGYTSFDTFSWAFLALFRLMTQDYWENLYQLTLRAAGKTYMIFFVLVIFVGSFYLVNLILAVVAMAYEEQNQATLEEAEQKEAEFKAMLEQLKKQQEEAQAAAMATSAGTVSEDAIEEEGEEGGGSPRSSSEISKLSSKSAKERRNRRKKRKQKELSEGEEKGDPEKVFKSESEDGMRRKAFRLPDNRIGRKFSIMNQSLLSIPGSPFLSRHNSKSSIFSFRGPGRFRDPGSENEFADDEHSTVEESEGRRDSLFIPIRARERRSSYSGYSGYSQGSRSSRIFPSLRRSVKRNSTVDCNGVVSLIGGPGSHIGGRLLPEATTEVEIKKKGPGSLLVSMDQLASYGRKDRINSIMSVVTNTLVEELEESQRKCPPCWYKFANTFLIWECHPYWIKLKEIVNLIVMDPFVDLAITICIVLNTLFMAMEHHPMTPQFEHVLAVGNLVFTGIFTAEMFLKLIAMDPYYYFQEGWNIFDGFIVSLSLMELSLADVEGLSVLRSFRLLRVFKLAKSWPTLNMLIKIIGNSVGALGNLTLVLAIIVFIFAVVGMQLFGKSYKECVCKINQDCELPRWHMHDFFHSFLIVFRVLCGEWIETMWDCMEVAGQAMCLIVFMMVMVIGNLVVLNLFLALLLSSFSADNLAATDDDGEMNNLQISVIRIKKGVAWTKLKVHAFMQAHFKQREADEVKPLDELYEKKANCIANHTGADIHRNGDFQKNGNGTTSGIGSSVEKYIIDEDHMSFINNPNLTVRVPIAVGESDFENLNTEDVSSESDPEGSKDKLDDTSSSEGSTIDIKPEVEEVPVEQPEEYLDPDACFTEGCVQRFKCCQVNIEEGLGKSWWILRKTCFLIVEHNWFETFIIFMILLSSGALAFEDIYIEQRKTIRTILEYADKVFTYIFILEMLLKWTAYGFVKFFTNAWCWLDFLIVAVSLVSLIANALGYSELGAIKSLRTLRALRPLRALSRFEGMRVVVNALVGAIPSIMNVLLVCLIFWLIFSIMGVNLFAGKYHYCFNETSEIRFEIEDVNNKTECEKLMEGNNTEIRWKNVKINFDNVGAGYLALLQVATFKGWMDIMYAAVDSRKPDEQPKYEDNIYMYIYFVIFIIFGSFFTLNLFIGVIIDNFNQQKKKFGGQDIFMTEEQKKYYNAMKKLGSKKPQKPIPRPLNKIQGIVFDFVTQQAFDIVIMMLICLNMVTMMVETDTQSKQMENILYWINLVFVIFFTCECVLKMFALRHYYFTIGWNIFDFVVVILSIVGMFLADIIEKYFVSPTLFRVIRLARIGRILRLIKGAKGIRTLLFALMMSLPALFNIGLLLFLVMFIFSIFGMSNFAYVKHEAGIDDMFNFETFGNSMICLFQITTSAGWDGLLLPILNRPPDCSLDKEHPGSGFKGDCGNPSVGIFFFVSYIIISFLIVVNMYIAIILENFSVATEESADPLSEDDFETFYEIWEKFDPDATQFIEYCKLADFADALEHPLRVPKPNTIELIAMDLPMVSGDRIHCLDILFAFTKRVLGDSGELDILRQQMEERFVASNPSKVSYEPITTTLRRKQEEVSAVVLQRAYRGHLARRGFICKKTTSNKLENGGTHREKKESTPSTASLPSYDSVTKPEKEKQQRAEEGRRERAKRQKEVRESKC

| Structure (SMILES) | IC50 at 1 h (NaV1.5 [1]) [µM] | IC50 (NaV1.6 [2]) [nM] | IC50 (NaV1.5 [3]) [µM] | IC50 (NaV1.1 [4]) [µM] | IC50 (NaV1.5 [5]) [µM] | IC50 (NaV1.1 [6]) [µM] | IC50 (NaV1.6 [7]) [nM] |
| --- | --- | --- | --- | --- | --- | --- | --- |
| C[C@@H]1[C@H](N(C)c2cc(F)c(S(=O)(=O)Nc3cscn3)cc2Cl)CCN1Cc1ccccc1 (racemic) [Example 309, rac-4-(((2R,3R)-1-benzyl-2-methylpyrrolidin-3-yl)(methyl)amino)-5-chloro-2-fluoro-N-(thiazol-4-yl)benzenesulfonamide] | 7.35 |  |  |  |  |  |  |
| CN(c1ccc(S(=O)(=O)Nc2ncns2)cc1Cl)[C@H]1CCN(Cc2ccccc2)C1 [Example 29, (S)-4-((1-benzylpyrrolidin-3-yl)(methyl)amino)-3-chloro-N-(1,2,4-thiadiazol-5-yl)benzenesulfonamide hydrochloride salt] |  | 244 | > 10 | > 30 | 29.5 | > 10 | 60 |
| CN(c1cc(F)c(S(=O)(=O)Nc2cscn2)cc1Cl)[C@H]1CCN(Cc2ccccc2)C1 [Example 38, (S)-4-((1-benzylpyrrolidin-3-yl)(methyl)amino)-5-chloro-2-fluoro-N-(thiazol-4-yl)benzenesulfonamide 2,2,2-trifluoroacetate] |  | 1940 | > 30 | 17.9 | 26.3 | > 10 | 803 |
| O=S(=O)(Nc1nccs1)c1ccc(N[C@@H]2CCN(Cc3ccccc3F)C2)c(Cl)c1 [Example 71, (R)-3-chloro-4-((1-(2-fluorobenzyl)pyrrolidin-3-yl)amino)-N-(thiazol-2-yl)benzenesulfonamide] |  | 1260 | 0.863 | 3.35 | 9.27 |  |  |
| Cc1c(N(C)[C@H]2CCN(Cc3ccccc3)C2)cc(F)c(S(=O)(=O)Nc2cscn2)c1F [Example 103, (S)-4-((1-benzylpyrrolidin-3-yl)(methyl)amino)-2,6-difluoro-3-methyl-N-(thiazol-4-yl)benzenesulfonamide 2,2,2-trifluoroacetate] |  | 61 | > 10 | 28.5 | 28.2 | 40.9 | 17 |
| CN(c1ccc(S(=O)(=O)Nc2cscn2)cc1Cl)[C@H]1CCN(Cc2cc(Cl)ccc2F)C1 [Example 254, (S)-3-chloro-4-((1-(5-chloro-2-fluorobenzyl)pyrrolidin-3-yl)(methyl)amino)-N-(thiazol-4-yl)benzenesulfonamide formate] |  | 1160 | 17 | 2.32 | 0.962 |  |  |
| Cc1c(N(C)[C@H]2CCN(Cc3ccccc3)C2)cc(F)c(S(=O)(=O)Nc2cccc(F)n2)c1F [Example 298, (S)-4-((1-benzylpyrrolidin-3-yl)(methyl)amino)-2,6-difluoro-N-(6-fluoropyridin-2-yl)-3-methylbenzenesulfonamide formate] |  | 79 | > 10 | 26 | > 30 | > 10 | 43 |
